{"source": "patent US10584115B2", "about": "“Substituted pyridine and pyrazine BMI-1 inhibitors” (PTC Therapeutics, Inc., priority 2013, dated 2020)", "key": {"[1]": {"tested_on": "Bmi-1 protein", "assay": "Sandwich ELISA Assay (Bmi-1 protein level in HT-1080 cells after compound treatment)", "type": "cell-based", "in_short": "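HT-1080 cells exposed to compounds for 40–48 h at 37 °C (0.5% DMSO final), then lysed. Bmi-1 in lysates measured by sandwich ELISA (mouse monoclonal capture, rabbit anti-Bmi-1 detection, HRP anti-rabbit, TMB), read at OD450 with OD570 reference against a recombinant Bmi-1 standard curve (0–8000 pg/mL).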"}, "[2]": {"conditions": "Table 1, Bmi-1 sandwich ELISA, read-out: ELISA EC50 value for Bmi-1 protein"}}, "note": "Where two headings read alike, the source gives them in different places."}
{"compound": "Cc1cn2c(-c3cc(C#N)cc(Nc4ccc(C(F)(F)F)cc4)n3)c(C3CC3)nc2c(C)n1", "note": "[compound 491, 2-(2-cyclopropyl-6,8-dimethylimidazo[1,2-a]pyrazin-3-yl)-6-{[4-(trifluoromethyl)phenyl]amino}pyridine-4-carbonitrile]", "values": [{"measurement": "EC50", "setting": "[1]; [2]", "result": "100 to 3000", "unit": "nM"}, {"measurement": "melting point", "result": "150 to 152", "unit": "°C"}]}
{"compound": "Cc1nc2cc(F)c(F)cc2n1-c1cncc(Nc2ccc(C(F)F)cc2)n1", "note": "[compound 501, 6-(5,6-difluoro-2-methyl-1H-benzimidazol-1-yl)-N-[4-(difluoromethyl)phenyl]pyrazin-2-amine]", "values": [{"measurement": "EC50", "setting": "[1]; [2]", "result": "10 to 100", "unit": "nM"}, {"measurement": "melting point", "result": "209 to 211", "unit": "°C"}]}
{"compound": "Fc1ccn2nc(C3CC3)c(-c3cncc(Nc4ccc(C(F)(F)F)cc4)n3)c2c1", "note": "[compound 535, 6-(2-cyclopropyl-5-fluoropyrazolo[1,5-a]pyridin-3-yl)-N-[4-(trifluoromethyl)phenyl]pyrazin-2-amine]", "values": [{"measurement": "EC50", "setting": "[1]; [2]", "result": "10 to 100", "unit": "nM"}, {"measurement": "melting point", "result": "122 to 125", "unit": "°C"}]}
{"compound": "[O-][n+]1cc(Nc2ccc(C(F)(F)F)cc2)nc(-c2c(C3CC3)nn3ccc(F)cc23)c1", "note": "[compound 536, 6-(2-cyclopropyl-5-fluoropyrazolo[1,5-a]pyridin-3-yl)-N-[4-(trifluoromethyl)phenyl]pyrazin-2-amine 4-oxide]", "values": [{"measurement": "EC50", "setting": "[1]; [2]", "result": "10 to 100", "unit": "nM"}, {"measurement": "melting point", "result": "183 to 186", "unit": "°C"}]}
{"compound": "CCc1nn2ccc(F)cc2c1-c1cncc(Nc2ccc(C(F)(F)F)cc2)n1", "note": "[compound 551, 6-(2-ethyl-5-fluoropyrazolo[1,5-a]pyridin-3-yl)-N-[4-(trifluoromethyl)phenyl]pyrazin-2-amine]", "values": [{"measurement": "EC50", "setting": "[1]; [2]", "result": "100 to 3000", "unit": "nM"}, {"measurement": "melting point", "result": "129 to 131", "unit": "°C"}]}
{"compound": "COc1ccc(Nc2cncc(-n3c(C)nc4ccc(F)cc43)n2)cc1", "note": "[compound 552, 6-(6-fluoro-2-methyl-1H-benzimidazol-1-yl)-N-(4-methoxyphenyl)pyrazin-2-amine]", "values": [{"measurement": "EC50", "setting": "[1]; [2]", "result": "< 1", "unit": "nM"}, {"measurement": "melting point", "result": "184 to 186", "unit": "°C"}]}
{"compound": "Cc1nc2ccc(F)cc2n1-c1cncc(Nc2ccc(C#N)cc2)n1", "note": "[compound 555, 4-{[6-(6-fluoro-2-methyl-1H-benzimidazol-1-yl)pyrazin-2-yl]amino}benzonitrile]", "values": [{"measurement": "EC50", "setting": "[1]; [2]", "result": "100 to 3000", "unit": "nM"}, {"measurement": "melting point", "result": "300 to 303", "unit": "°C"}]}
{"compound": "COC(=O)c1ccc(Nc2cncc(-n3c(C)nc4ccc(F)cc43)n2)cc1", "note": "[compound 556, methyl 4-{[6-(6-fluoro-2-methyl-1H-benzimidazol-1-yl)pyrazin-2-yl]amino}benzoate]", "values": [{"measurement": "EC50", "setting": "[1]; [2]", "result": "10 to 100", "unit": "nM"}, {"measurement": "melting point", "result": "198 to 200", "unit": "°C"}]}
{"compound": "Cc1nc2ccc(F)cc2n1-c1cncc(Nc2ccc(N)cc2)n1", "note": "[compound 558, N-[6-(6-fluoro-2-methyl-1H-benzimidazol-1-yl)pyrazin-2-yl]benzene-1,4-diamine]", "values": [{"measurement": "EC50", "setting": "[1]; [2]", "result": "10 to 100", "unit": "nM"}, {"measurement": "melting point", "result": "189 to 191", "unit": "°C"}]}
{"compound": "Cc1cccc(Nc2cncc(-n3c(C)nc4ccc(F)cc43)n2)c1", "note": "[compound 560, 6-(6-fluoro-2-methyl-1H-benzimidazol-1-yl)-N-(3-methylphenyl)pyrazin-2-amine]", "values": [{"measurement": "EC50", "setting": "[1]; [2]", "result": "100 to 3000", "unit": "nM"}, {"measurement": "melting point", "result": "173 to 174", "unit": "°C"}]}
{"compound": "Cc1nc2ccc(F)cn2c1-c1cncc(Nc2ccccc2)n1", "note": "[compound 590, 6-(6-fluoro-2-methylimidazo[1,2-a]pyridin-3-yl)-N-phenylpyrazin-2-amine]", "values": [{"measurement": "EC50", "setting": "[1]; read-out: ELISA EC50 value for Bmi-1 protein, Table 1, Bmi-1 sandwich ELISA", "result": "10 to 100", "unit": "nM"}, {"measurement": "melting point", "result": "216 to 218", "unit": "°C"}]}
{"compound": "Cc1nc2ccc(F)cn2c1-c1cncc(Nc2ccc(F)cc2)n1", "note": "[compound 591, 6-(6-fluoro-2-methylimidazo[1,2-a]pyridin-3-yl)-N-(4-fluorophenyl)pyrazin-2-amine]", "values": [{"measurement": "EC50", "setting": "[1]; [2]", "result": "100 to 3000", "unit": "nM"}, {"measurement": "melting point", "result": "208 to 210", "unit": "°C"}]}
{"compound": "Cc1nc2ccc(F)cn2c1-c1cncc(Nc2ccc(Cl)cc2)n1", "note": "[compound 593, N-(4-chlorophenyl)-6-(6-fluoro-2-methylimidazo[1,2-a]pyridin-3-yl)pyrazin-2-amine]", "values": [{"measurement": "EC50", "setting": "[1]; [2]", "result": "1 to 10", "unit": "nM"}, {"measurement": "melting point", "result": "215 to 218", "unit": "°C"}]}
{"compound": "Cc1nc2ccc(F)cn2c1-c1cncc(Nc2cccc(C(F)(F)F)c2)n1", "note": "[compound 594, 6-(6-fluoro-2-methylimidazo[1,2-a]pyridin-3-yl)-N-[3-(trifluoromethyl)phenyl]pyrazin-2-amine]", "values": [{"measurement": "EC50", "setting": "[1]; [2]", "result": "100 to 3000", "unit": "nM"}, {"measurement": "melting point", "result": "188 to 190", "unit": "°C"}]}
